Results on 13 molecules are retold here after patent publication US7288631B2 (Euroscreen, s.a., priority 1997, dated 2007).

Assay type in all cases: cell-based
In assay [1] the target is T1, P2Y11 receptor (Homo sapiens, UniProt Q96G91, DUP173-173).
T1 construct: expressed in transfected cells; host or cells: 1321N1 astrocytoma cells and CHO-K1 cells, G418-selected, pEFIN3 bicistronic vector
T1 sequence (Q96G91 with tags, fused parts or gaps DUP173-173): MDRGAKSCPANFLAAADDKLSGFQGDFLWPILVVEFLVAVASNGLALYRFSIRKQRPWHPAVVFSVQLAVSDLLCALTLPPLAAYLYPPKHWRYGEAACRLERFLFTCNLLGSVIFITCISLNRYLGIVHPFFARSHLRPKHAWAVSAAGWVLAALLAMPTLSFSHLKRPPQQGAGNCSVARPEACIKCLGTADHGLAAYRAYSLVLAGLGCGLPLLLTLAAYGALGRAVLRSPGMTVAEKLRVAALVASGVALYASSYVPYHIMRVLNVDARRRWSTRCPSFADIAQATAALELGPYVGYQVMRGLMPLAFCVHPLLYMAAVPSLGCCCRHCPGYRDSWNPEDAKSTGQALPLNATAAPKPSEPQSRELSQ
Nature of the assay: Inositol trisphosphate (IP3) accumulation in 1321N1 astrocytoma cells transfected with the new receptor. The settings on record: for IP3 accumulation in response to nucleotide: 100 μM, pool of G418-resistant P2Y11-transfected 1321N1 clones; for Agonist efficacy compared with ATP: same for the phosphoinositide and cAMP pathways; for Effect on IP3 accumulation in concentration-action curves: large range of concentrations, FIG. 4A. The method, then: (§1) The complete sequence of the new receptor according to the invention was subcloned between the Hind III and Nhe I sites of the bicistronic pEFIN3 expression vector. 1321N1 and CHO-K1 cells were transfected with the recombinant pEFIN3 plasmid or with the plasmid alone using the calcium phosphate precipitation method as described (19). The transfected cells were selected with 400 μg/ml G418 in complete medium (10% FCS, 100 units/ml penicillin, 100 μg/ml streptomycin and 2.5 μg/ml amphotericin B in Duibecco's modified Eagle's medium (DMEM)) two days after transfection and maintained in the same medium (10).
1321N1 cells were labelled for 24 hours with […] [^3H] inositol in inositol free DMEM containing 5% FCS, antibiotics, amphotericin, sodium pyruvate and 400 μg/ml G418. Cells were washed twice with Krebs-Ringer Hepes (KRH) buffer of the following composition (124 mM NaCl, 5 mM KC1, 1.25 mM MgSO4, 1.45 mM CaCl2, 1.25 mM KH2PO4, 25 mM Hepes (pH:7.4) and 8 mM glucose) and incubated in the same medium for 30 min. The cells were then challenged by various nucleotides for 30 s. The incubation was stopped by the addition of an ice cold 3% perchioric acid solution. IP were extracted and separated on Dowex columns as previously described (20).
The complete sequence of the new receptor was introduced in the pEFIN3 expression vector in order to transfect the 1321N1 astrocytoma cell line, used previously to characterize several P2Y subtypes (6, 10, 12). The pool of G418-resistant clones was tested for its functional response to several nucleotides.

Assay [2] concerns the target T1, P2Y11 receptor. Description: cAMP accumulation in CHO-K1 cells transfected with the new receptor. As to conditions: for cAMP content in response to nucleotide: 100 μM, pool of G418 resistant P2Y11-transfected CHO-K1 clones; for Inhibition of the cAMP response to ATP (30 μM): indomethacin 10 μg/ml from 30 min before, 8 (p-sulfophenyl) theophylline 100 μM. The procedure: as §1
(§2) Stably transfected CHO-K1 or 1321N1 cell lines were spread on Petri dishes (150.000 cells per dish) and cultured in Ham's F12 or DMEM medium containing 10% FCS, antibiotics, amphotericin, sodium pyruvate and 400 μg/ml G418. Cells were preincubated for 30 min in KRH buffer with Rolipram (25 μM) and incubated for different times in the presence of the agonists (15 min in most experiments). The incubation was stopped by the addition of 1 ml HC1 0.1 M. The incubation medium was dried up, resuspended in water and diluted as required. Cyclic AMP was quantified by radioimmunoassay after acetylation as previously described (21).
(§3) A much lower but significant endogeneous response due to the degradation of adenine nucleotides into adenosine was also obtained in the 1321N1 cells transfected with the vector alone. […] We therefore used CHO-K1 cells in order to characterize the coupling of the new receptor to the cAMP pathway. A pool of G418 resistant CHO-K1 clones was first tested for its response to several nucleotides at a concentration of 100 μM. […] The rank order of potency was the same as in the inositol phosphate study on 1321N1 cells.
(In general: Cyclic AMP is a second messenger, typically raised through Gs and lowered through Gi signalling.)

Assay [3] concerns the target T1, P2Y11 receptor. Nature of the assay: [Ca2+]i measurements on 1321N1 transfected cells. As to conditions: 10 μM. The method, then: The complete sequence of the new receptor was introduced in the pEFIN3 expression vector in order to transfect the 1321N1 astrocytoma cell line, used previously to characterize several P2Y subtypes (6, 10, 12). The pool of G418-resistant clones was tested for its functional response to several nucleotides. […] The effect of ADP and 2MeSADP were minimal.

In assay [4] the target is T1, P2Y11 receptor. Nature of the assay: cAMP measurement in 1321N1 cells transfected with the new receptor. The procedure:
as §2, §3

Assay [5] has as its system CHO-K1 cells transfected with the vector alone. Description: cAMP in CHO-K1 cells transfected with the vector alone or untransfected. As to conditions: 100 μM. The method, then: as §1
as §2, with “(21). […]” for “(21).”

By EC50 is commonly meant the concentration that produces a half-maximal response.

As for `Nc1ncnc2c1ncn2[C@@H]1O[C@H](COP(=O)(O)O)[C@@H](O)[C@H]1O` [AMP], the “IP3 accumulation in response to nucleotide” value (shortened to “IP3 accumulation in response”) at P2Y11 receptor [1] (30 s) was “inactive”. Moreover, the “cAMP content in response to nucleotide” value at P2Y11 receptor [2] was “completely inactive”.
`CSc1nc(N)c2ncn([C@@H]3O[C@H](COP(=O)(O)OP(=O)(O)OP(=O)(O)O)[C@@H](O)[C@H]3O)c2n1` [2MeSATP, 2-methylthio-ATP] registered an EC50 on P2Y11 receptor [1] (P2Y11-transfected 1321N1 cells, 30 s, means±range of two independent experiments) of 118 ± 15 µM. Moreover, at P2Y11 receptor [1], the “Agonist efficacy compared with ATP” value is “same maximal effect than ATP but presented a lower potency”.
For `CSc1nc(N)c2ncn([C@@H]3O[C@H](COP(=O)(O)OP(=O)(O)O)[C@@H](O)[C@H]3O)c2n1` [2MeSADP, 2-methylthio-ADP], on P2Y11 receptor [1], the “Effect on IP3 accumulation in concentration-action curves” value is reported as “minimal” and the “Agonist efficacy compared with ATP” value was “almost inactive”.
For the molecule `Nc1ncnc2c1ncn2[C@@H]1O[C@H](COP(=O)(O)OP(=O)(O)OP(=O)(O)OP(=O)(O)OP(=O)(O)OP(=O)(O)OC[C@H]2O[C@@H](n3cnc4c(N)ncnc43)[C@H](O)[C@@H]2O)[C@@H](O)[C@H]1O` [AP6A], the “IP3 accumulation in response” value at P2Y11 receptor [1] (30 s) was “inactive”.
As to `Nc1ncnc2c1ncn2[C@@H]1O[C@H](COP(=O)(O)OP(=O)(O)O)[C@@H](O)[C@H]1O` [ADP], at P2Y11 receptor [1] (30 s), the “IP3 accumulation in response” value is “inactive”. In addition, on P2Y11 receptor [1], the “Effect on IP3 accumulation in concentration-action curves” value is “minimal”. Besides, the “cAMP content in response to nucleotide” value at P2Y11 receptor [2] was “completely inactive”. Also, the “[Ca2+]i response” value at P2Y11 receptor [3] is “inactive”.
On to `Nc1ncnc2c1ncn2[C@@H]1O[C@H](COP(=O)(O)OP(=O)(O)OP(=O)(O)O)[C@@H](O)[C@H]1O` [ATP], for which the cAMP response entry on P2Y11 receptor [4] was “strong cAMP increase”. The “IP3 accumulation in response” value at P2Y11 receptor [1] (30 s) is on record as “strong inositol trisphosphate (IP3) accumulation”. Besides, the “cAMP content in response to nucleotide” value at P2Y11 receptor [2] is reported as “strong increase in the cAMP content”. Moreover, the “cAMP response after short stimulation” value at P2Y11 receptor [2] (after 2 min of stimulation, CHO-K1) is “significant cAMP response”. For the same molecule, the “[Ca2+]i response” value on P2Y11 receptor [3] is recorded as “response”. In addition, in assay [5], the “cAMP content in vector-alone cells” value is “inactive”.
With `Cn1c(=O)c2[nH]c(-c3ccc(S(=O)(=O)O)cc3)nc2n(C)c1=O` [8 (p-sulfophenyl) theophylline], the “Inhibition of the cAMP response to ATP (30 μM)” value on P2Y11 receptor [2] is recorded as “inhibited neither”.
For the molecule `O=c1ccn([C@@H]2O[C@H](COP(=O)(O)OP(=O)(O)O)[C@@H](O)[C@H]2O)c(=O)[nH]1` [UDP], the “IP3 accumulation in response” value at P2Y11 receptor [1] (30 s) was “inactive”. Also, the “cAMP content in response to nucleotide” value on P2Y11 receptor [2] is “completely inactive”.
For `Nc1ncnc2c1ncn2[C@@H]1O[C@H](CO)[C@@H](O)[C@H]1O` [adenosine], the “IP3 accumulation in response” value at P2Y11 receptor [1] (30 s) is “inactive”. Moreover, on P2Y11 receptor [2], the “cAMP content in response to nucleotide” value was “completely inactive”.
As to Pertussis toxin, on P2Y11 receptor [1] (pertussis toxin 50 ng/ml, 24 h pretreatment), the “Effect on the ATP response (IP3)” value is given as “no effect”.
`Nc1ncnc2c1ncn2[C@@H]1O[C@H](COP(=O)(O)OP(=O)(O)OP(=O)(O)OP(=O)(O)OC[C@H]2O[C@@H](n3cnc4c(N)ncnc43)[C@H](O)[C@@H]2O)[C@@H](O)[C@H]1O` [AP4A]: the “IP3 accumulation in response” value at P2Y11 receptor [1] (30 s) was “inactive”.
As for `O=c1ccn([C@@H]2O[C@H](COP(=O)(O)OP(=O)(O)OP(=O)(O)O)[C@@H](O)[C@H]2O)c(=O)[nH]1` [UTP], the “IP3 accumulation in response” value on P2Y11 receptor [1] (30 s) was “inactive”. At P2Y11 receptor [2], the “cAMP content in response to nucleotide” value is “completely inactive”.
As for `COc1ccc2c(c1)c(CC(=O)O)c(C)n2C(=O)c1ccc(Cl)cc1` [indomethacin, Indomethacin], the “Inhibition of the cAMP response to ATP (30 μM)” value at P2Y11 receptor [2] is “inhibited neither”.
